Read-outs that look alike come from different tables or passages of the source.
Legend:
dopamine D-2 receptors = biological target: T1, dopamine D-2 receptors (Rattus norvegicus, UniProt P61169); assay: inhibition of 3H-spiperone binding to dopamine D-2 receptors in rat corpus striatum in vitro
T1 construct: striatal tissue is dissected and weighed; from tissue; host or cells: corpus striatum membranes of male Wistar rats
Procedure: INHIBITION OF ^3 H-SPIPERONE BINDING TO DOPAMINE D-2 RECEPTORS IN RAT CORPUS STRIATUM IN VITRO
By this method the inhibition by drugs of the binding of ^3 H-spiperone (0.5 nM) to dopamine D-2 receptors in membranes from rat corpus striatum is determined in vitro. Method and results in Hyttel and Larsen, J. Neurochem, 44, 1615-1622, 1985).
Male Wistar (Mol:Wistar) rats (125-250 g) are sacrificed and striatal tissue is dissected and weighed. The tissue is homogenized (Ultra Turrax, 10 sec.) in 10 ml of ice-cold 50 mM K-phosphate buffer pH 7.4 (at 25° C.). The homogenate is centrifuged twice at 20,000 g for 10 min. at 4° C. with rehomogenization of the pellet in 10 ml ice-cold buffer. The final pellet is homogenized in 1300 vol (w/v) ice-cold buffer.
Incubation tubes kept on ice in triplicate receive 100 μl of drug solution in water (or water for total binding) and 4000 μl of tissue suspension (final tissue content corresponds to 3.08 mg original tissue). The binding experimental is initiated by addition of 100 μl of ^3 H-spiperone (final concentration 0.5 nM) and by placing the tubes in a 37° C. water bath. After incubation for 10 min. the samples are filtered under vacuum (0-50 mBar) through Whatman GF/F filters (25 mm). The tubes are rinsed with 5 ml ice-cold buffer which are then poured on the filters. Thereafter, the filters are washed with 2×5 ml of buffer. The filters are placed in counting vials and 4 ml of appropriate scintillation fluid (e.g. Picofluor ™15) are added. After shaking for 1 h and storage 2 hrs in the dark the content of radioactivity is determined by liquid scintillation counting. Specific binding is obtained by subtracting the nonspecific binding in the presence of 10 μM of 6,7-ADTN.
For determination of the inhibition of binding five concentrations of drugs covering 3 decades are used.
England, specific activity 15-25 Ci/mmol.

[1] = biological target: T2, serotonin S2 (5-HT2) receptors (Rattus norvegicus, UniProt P14842); assay: inhibition of 3H-ketanserin binding to serotonin S2 (5-HT2) receptors in rat cortex in vitro; conditions: 3H-ketanserin 0.5 nM, rat cortex membranes, read-out: Binding IC50, 3H Ket.
T2 construct: cortical tissue is dissected and weighed; from tissue; host or cells: cerebral cortex membranes of male Wistar (Mol:Wist) rats
T2 sequence (P14842 whole entry): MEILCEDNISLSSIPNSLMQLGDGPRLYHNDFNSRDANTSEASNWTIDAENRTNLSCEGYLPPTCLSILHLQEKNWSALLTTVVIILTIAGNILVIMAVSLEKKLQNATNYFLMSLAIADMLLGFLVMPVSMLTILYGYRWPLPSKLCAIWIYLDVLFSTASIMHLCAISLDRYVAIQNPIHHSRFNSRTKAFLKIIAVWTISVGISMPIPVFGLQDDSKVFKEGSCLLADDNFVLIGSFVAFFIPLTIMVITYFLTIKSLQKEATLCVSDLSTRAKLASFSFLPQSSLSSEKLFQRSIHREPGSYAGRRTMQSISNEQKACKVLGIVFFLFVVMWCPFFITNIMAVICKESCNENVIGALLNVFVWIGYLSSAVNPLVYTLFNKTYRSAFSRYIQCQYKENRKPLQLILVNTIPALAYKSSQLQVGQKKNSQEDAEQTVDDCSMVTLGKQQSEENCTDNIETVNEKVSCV
Procedure: Method in Hyttel, Pharmacology & Toxicology, 61, 126-129. 1987.
Male Wistar (Mol:Wist) rats (125-250 g) are sacrifices and cortical tissue is dissected and weighed. The tissue is homogenized (Ultra Turrax, 10 sec.) in 10 ml of ice-cold 50 mM tris buffer pH 7.7 (at 25° C.). The centrifuge glassware used in this step has been rinsed by sonication for 10 min. in ethanol. The homogenate is centrifuged twice at 20,000 g for 10 min. at 4° C. with rehomogenization of the pellet in 10 ml ice-cold buffer. The final pellet is homogenized in 500 vol (w/v) ice-cold buffer.
Incubation tubes kept on ice in triplicate receive 100 μl of drug solution in water (or water for total binding) and 2000 μl of tissue suspension (final tissue content corresponds to 4 mg original tissue). […] After incubation for 30 min. the samples are filtered under vacuum (0-50 mBar) through Whatman GF/F filters (25 mm). The tubes are rinsed with 5 ml ice-cold buffer which are then poured on the filters. Thereafter, the filters are washed with 2×5 ml of buffer. The filters are placed in counting vials and 4 ml of appropriate scintillation fluid (e.g., Picofluor™15) are added. After shaking for 1 h and storage 2 hrs in the dark the content of radioactivity is determined by liquid scintillation counting. Specific binding is obtained by subtracting the nonspecific binding in the presence of 1 μM mianserin. For determination of the inhibition of binding five concentrations of drugs covering 3 decades are used.
The IC50 value is determined as the concentration at which the binding is 50% of the total binding in control samples minus the nonspecific binding in the presence of 1 μM mianserin.

[2] = 3H-spiperone 0.5 nM, rat corpus striatum membranes, in vitro, read-out: Binding IC50, 3H Spi.

T1 sequence (P61169 whole entry): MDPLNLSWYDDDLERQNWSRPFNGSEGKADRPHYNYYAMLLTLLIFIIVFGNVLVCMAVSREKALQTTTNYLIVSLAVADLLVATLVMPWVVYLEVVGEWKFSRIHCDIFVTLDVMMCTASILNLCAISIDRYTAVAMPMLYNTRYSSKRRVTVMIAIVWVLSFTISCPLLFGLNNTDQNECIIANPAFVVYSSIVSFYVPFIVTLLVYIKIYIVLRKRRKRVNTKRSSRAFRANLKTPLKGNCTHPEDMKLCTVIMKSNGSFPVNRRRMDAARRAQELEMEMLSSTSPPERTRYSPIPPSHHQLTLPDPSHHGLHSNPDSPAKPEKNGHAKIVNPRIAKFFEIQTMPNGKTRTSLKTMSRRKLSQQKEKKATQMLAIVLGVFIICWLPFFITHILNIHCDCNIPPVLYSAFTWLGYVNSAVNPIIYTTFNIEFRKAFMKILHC

| Structure (SMILES) | IC50 (dopamine D-2 receptors) | IC50 [1] | IC50 (dopamine D-2 receptors; [2]) |
| --- | --- | --- | --- |
| Cc1ccc2c(C3=CCN(CCN4CCN(C(C)C)C4=O)CC3)cn(-c3ccc(F)cc3)c2c1 [Compound 2b, 1-(4-fluorophenyl)-6-methyl-3-[1-[2-[3-(2-propyl)-2-imidazolidinon-1-yl]ethyl]-1,2,3,6-tetrahydropyridin-4-yl]-1H-indole] | 67 nM | 1.9 nM | – |
| O=C1NCCN1CCN1CCC(c2cn(-c3ccc(F)cc3)c3cc(C(F)(F)F)ccc23)CC1 [Compound 4d, 1-(4-fluorophenyl)-3-[1-[2-(2-imidazolidinon-1-yl)ethyl]-4-piperidyl]-6-trifluoromethyl-1H-indole] | – | 1.7 nM | – |
| OCCN1CCC(c2cn(-c3ccc(F)cc3)c3cc(Cl)ccc23)CC1 [Compound 4f, 6-chloro-1-(4-fluorophenyl)-3-[1-(2-hydroxyethyl)-4-piperidyl]-1H-indole] | – | 11 nM | – |
| O=C1NCCN1CCN1CCC(c2cn(-c3ccc(F)cc3)c3cc(Br)ccc23)CC1 [Compound 4h, 6-bromo-1-(4-fluorophenyl)-3-[1-[2-(2-imidazolidinon-1-yl)ethyl-]-4-piperidyl]-1H-indole] | – | 1.8 nM | – |
| COc1ccc2c(C3CCN(CCN4CCOC4=O)CC3)cn(-c3ccc(F)cc3)c2c1 [Compound 4j, 1-(4-fluorophenyl)-6-methoxy-3-[1-[2-(2-oxazolidinon-1-yl]ethyl]-4-piperidyl]-1H-indole] | – | 40 nM | 1100 nM |
| CC(C)N1CCN(CCN2CCC(c3cn(-c4ccc(F)cc4)c4cc(S(C)(=O)=O)ccc34)CC2)C1=O [Compound 4k, 1-(4-fluorophenyl)-6-methylsulfonyl-3-[1-[2-[3-(2-propyl)-2-imidazolidinon-1-yl]ethyl]-4-piperidyl]-1H-indole] | – | 9 nM | 600 nM |
| CC(C)N1CCN(CCN2CCC(c3cn(-c4ccc(F)cc4)c4cc(Br)ccc34)CC2)C1=O [Compound 5b, 6-bromo-1-(4-fluorophenyl)-3-[1-[2-[3-(2-propyl)-2-imidazolidinon-1-yl]ethyl]-4-piperidyl]-1H-indole] | – | 2 nM | – |
| CC(C)c1ccc2c(C3CCN(CCN4CCNC4=O)CC3)cn(-c3ccc(F)cc3)c2c1 [Compound 5d, 1-(4-fluorophenyl)-6-(2-propyl)-3-[1-[2-(2-imidazolidinon-1-yl)ethyl]-4-piperidyl]-1H-indole] | – | 18 nM | – |
| CC(C)N1CCN(CCN2CCC(c3cn(-c4ccc(F)cc4)c4cc(Cl)c(Cl)cc34)CC2)C1=O [Compound 5e, 5,6-dichloro-1-(4-fluorophenyl)-3-[1-[2-[3-(2-propyl)-2-imidazolidinon-1-yl]ethyl]-4-piperidyl]-1H-indole] | – | 3.4 nM | – |
| CC(C)N1CCN(CCN2CCC(c3cn(-c4ccc(F)cc4)c4cc5c(cc34)CCC5)CC2)C1=O [Compound 5g, 1-(4-fluorophenyl)-3-[1-[2-[3-(2-propyl)-2-imidazolidinon-1-yl]ethyl]-4-piperidyl]-1,5,6,7-tetrahydrocyclopent[f]-1H-indole] | – | 3.2 nM | – |
| O=C1NCCN1CCN1CCC(c2cn(-c3ccc(F)cc3)c3cc4c(cc23)CCC4)CC1 [Compound 5h, 1-(4-fluorophenyl)-3-[1-[2-(2-imidazolidinon-1-yl)ethyl]-4-piperidyl]-1,5,6,7-tetrahydrocyclopent[f]-1H-indole] | – | 1.2 nM | – |
| CNC(=S)NCCN1CCC(c2cn(-c3ccc(F)cc3)c3cc(Cl)ccc23)CC1 [Compound 9c, 6-chloro-1-(4-fluorophenyl)-3-[1-[2-(3-methyl-1-thioureido)-1-ethyl]-4-piperidyl]-1H-indole] | – | 12 nM | – |
| CCN(CCN1CCC(c2cn(-c3ccc(F)cc3)c3cc(Cl)ccc23)CC1)C(=O)N(C)C [Compound 9e, 6-chloro-3-[1-[2-(3,3-dimethyl-1-ethyl-1-ureido)-1-ethyl]-4-piperidyl]-1-(4-fluorophenyl)-1H-indole] | – | 6.4 nM | – |
| CN(C)C(=S)NCCN1CCC(c2cn(-c3ccc(F)cc3)c3cc(Cl)ccc23)CC1 [Compound 9f] | – | 2.5 nM | – |
| CC(C)N(C)C(=O)NCCN1CCC(c2cn(-c3ccc(F)cc3)c3cc(Cl)ccc23)CC1 [Compound 9g, 6-chloro-1-(4-fluorophenyl)-3-[1-[2-[3-methyl-3-(2-propyl)-1-ureido]-1-ethyl]-4-piperidyl]-1H-indole] | – | 6.2 nM | – |
| CNC(=O)N(C)CCN1CCC(c2cn(-c3ccc(F)cc3)c3cc(Cl)ccc23)CC1 [Compound 9h, 6-chloro-1-(4-fluorophenyl)-3-[1-[2-(1,3-dimethyl-1-ureido)-1-ethyl]-4-piperidyl]-1H-indole] | – | 1.6 nM | – |
| CC(C)NC(=O)N(C)CCN1CCC(c2cn(-c3ccc(F)cc3)c3cc(Cl)ccc23)CC1 [Compound 9i, 6-chloro-1-(4-fluorophenyl)-3-[1-[2-(1-methyl-3-(2-propyl)-1-ureido)-1-ethyl]-4-piperidyl]-1H-indole] | – | 2.2 nM | – |
| CC(=O)NCCN1CCC(c2cn(-c3ccc(F)cc3)c3cc(Cl)ccc23)CC1 [Compound 9j] | – | 11 nM | – |
| CCOC(=O)NCCN1CCC(c2cn(-c3ccc(F)cc3)c3cc(Cl)ccc23)CC1 [Compound 9k] | – | 4 nM | – |
| CN(C)C(=O)NCCN1CCC(c2cn(-c3ccc(F)cc3)c3cc(Cl)ccc23)CC1 [Compound 9l, 6-chloro-3-[1-[2-(3,3-dimethyl-1-ureido)-1-ethyl]-4-piperidyl]-1-(4-fluorophenyl)-1H-indole] | – | 1.3 nM | – |
| Fc1ccc(-n2cc(C3CCN(CCN4CCNC4=S)CC3)c3ccc(Cl)cc32)cc1 [Compound 12a, 6-chloro-1-(4-fluorophenyl)-3-[1-[2-(2-imidazolidinthion-1-yl)ethyl]-4-piperidyl]-1H-indole] | – | 6.2 nM | – |
| CC(C)N1CCN(CCN2CCC(c3cn(-c4ccccc4)c4cc(Cl)ccc34)CC2)C1=O [Compound 15k, 6-chloro-1-phenyl-3-[1-[2-[3-(2-propyl)-2-imidazolidinon-1-yl]ethyl]-4-piperidyl]-1H-indole] | – | 4.5 nM | – |
| CC(C)n1ccn(CCN2CCC(c3cn(-c4ccc(F)cc4)c4cc(Cl)ccc34)CC2)c1=O [Compound 17a, 6-chloro-1-(4-fluorophenyl)-3-[1-[2-[3-(2-propyl)imidazol-2-on-1-yl]ethyl]-4-piperidyl]-1H-indole] | – | 4.6 nM | – |
| O=C1N(CCO)CCN1CCN1CCC(c2cn(-c3ccc(F)cc3)c3cc(Cl)ccc23)CC1 [Compound 18a, 6-chloro-1(4-fluorophenyl)-3-[1-[2-[3-(2-hydroxyethyl)-2-imidazolidinon-1-yl]e-thyl]-4-piperidyl]-1H-indole] | – | 2.5 nM | – |
| CSc1ccc2c(C3CCN(CCN4CCN(C(C)C)C4=O)CC3)cn(-c3ccc(F)cc3)c2c1 [Compound 19a, 1-(4-fluorophenyl)-6-methylthio-3-[1-[2-[3-(2-propyl)-2-imidazolidinon-1-yl]ethyl]-4-piperidyl]-1H-indole] | – | 3.2 nM | – |
| CC(C)N1CCN(CCN2CCC(C3CN(c4ccc(F)cc4)c4cc(Cl)ccc43)CC2)C1=O (stereo not drawn) [Compound 21a, 6-chloro-1-(4-fluorophenyl)-3-[1-[2-[3-(2-propyl)-2-imidazolidinon-1-yl]ethyl]-4-piperidyl]-2,3-dihydro-1H-indole] | – | 9.6 nM | – |
| Cc1c(C2=CCN(CCN3CCNC3=O)CC2)c2ccccc2n1-c1ccc(F)cc1 [Compound 24b, 1-(4-fluoropheyl)-3-[1-[2-(2-imidazolidinon-1-yl)ethyl]-1,2,3,6tetrahydropyridin-4-yl]-2-methyl-1H-indole] | – | 1 nM | – |

From patent US5216001A, “Indole derivatives” (H. Lunbeck A/S, priority 1990, dated 1993)
